Marks after values point to notes of the source that are not given here.
Key:
indoxyl sulfate [1] = assay: Human clinical trial in CKD patients: indoxyl sulfate in plasma and early morning urine (LC-MS/MS); format: in vivo; parameters: key to Influence on concentration of IS / Influence on IS U/P ratio: Excellent effects: ◯; Poor effects: X; No significant difference: —; (◯): whether or not there is an effect of promoting excretion of indoxyl sulfate into the urine cannot be determined
Experimental: (§1) 1. […] Patients were assigned to each group so that age, sex, presence of diabetes, and eGFR were not biased. Each group was treated according to the “CKD medical care guide-summary of treatment” (hereinafter referred to as standard treatment).
(§2) An alkalinizing agent was not administered to the control group. […] A pH of early morning urine was controlled over time so that the dosage could be increased up to 6 tablets, 3 times a day (morning, noon, evening) as needed according to the discretion of the physician in cases where a pH of early morning urine was less than pH 6.5. To the group B, 3 tablets a day in which each tablet contained 500 mg of sodium bicarbonate were orally administered 3 times a day (morning, noon, evening) for 24 weeks. A pH of early morning urine was controlled over time so that the dosage could be increased up to 6 tablets, 3 times a day (morning, noon, evening) as needed according to the discretion of the physician in cases where a pH of early morning urine was less than pH 6.5.
(§3) Early morning urine and blood were collected before the start of administration, and 6 weeks, 12 weeks, and 24 weeks after the start of administration, and each specimen was stored at −80° C. Methods used in the present field for indoxyl sulfate, p-cresyl sulfate, phenylacetyl-L-glutamine, hippuric acid, and argininosuccinic acid in urine and blood (Sato, E., et. al., Metabolic alteration by indoxyl sulfate in skeletal muscle induce uremic sarcopenia in chronic kidney disease., Sci Rep. 2016 Nov. 10; 6:36618. doi: 10.1038/srep36618, and the like) were referred to, and quantitative analysis was performed using the following liquid chromatography triple quadrupole mass spectrometer (LC-MS/MS).
For LC, NANOSPACE SI-2 (manufactured by Shiseido) was used, and […] MGM was selected as the analytical column.
For MS, TSQ Quantiva (manufactured by Thermo Fisher Scientific Co., Ltd.) was used, and five compounds were ionized in the negative mode and detected using the Selected Reaction Monitoring method. The quantitative value was calculated using a calibration curve prepared with a standard solution of each compound.
(§4) For statistical analysis, the Mann-Whitney test was used for comparison between groups, and the Wilcoxon test was used for comparison of changes over time. The Pearson test was used for correlation.
Then, the average value and SD of each group were calculated for (i) to (ix) above. For each of (iv) to (ix) above, the average value and SD of each group were calculated for all data of 6 weeks, 12 weeks, and 24 weeks after the start of administration in each group.

cystatin C = assay: Human clinical trial: cystatin C (colloidal gold agglutination method); format: in vivo
Experimental: as §1, §2, §3
In addition, the amount of urinary β2-microglobulin was measured by latex agglutination method using the LZ test “Eiken” β2-M and LZ-β2-M standard U “Eiken” (Eiken Chemical Co., Tokyo, Japan). Furthermore, the amount of cystatin C in the serum was measured by a colloidal gold agglutination method using Nescoat GC Cystatin C (Nm) (Alfresa Pharma, Osaka, Japan).
as §4

p-cresyl sulfate = assay: Urine p-cresyl sulfate (PCS) corrected by urinary specific gravity; format: in vivo, human
Description: (§5) Medical Examination, Vol. 44, No. 1, 1995, pages 79-83 by Tetsuo Aoki et al. was referred to. A urinary specific gravity 1.022 was converted into a reference value.
(§6) Specific gravity correction value (unit/1.022·UG)=actual measurement value×(1.022−1.000)/(specific gravity value−1.000)

hippuric acid = assay: Urine hippuric acid (HA) corrected by urinary specific gravity; format: in vivo, human
Description: as §5, §6

indoxyl sulfate [2] = assay: Urine indoxyl sulfate (IS) corrected by urinary specific gravity; format: in vivo, human
Description: as §5, §6

[3] = 0 W, before the start of administration
[4] = 6-24 W, all data of 6, 12 and 24 weeks
[5] = compared to before administration

O=C([O-])O.[Na+] [Bicarbonate, sodium bicarbonate]
Indoxyl Sulfate-Urine/Plasma ratio (indoxyl sulfate [1]; [3]): 55.5 ± 43.6 | Plasma Indoxyl Sulfate (indoxyl sulfate [1]; [3]): 1338 ± 770 ng/mL | Urine Indoxyl Sulfate (early morning urine) (indoxyl sulfate [1]; [3]): 54379 ± 40259 ng/mL | Indoxyl Sulfate-Urine/Plasma ratio (indoxyl sulfate [1]; [4]): 46.2 ± 33.7^d | Indoxyl Sulfate-Urine/Plasma ratio, change from week 0 (indoxyl sulfate [1]; [4]): −10.33 ± 36.35 | Plasma Indoxyl Sulfate (indoxyl sulfate [1]; [4]): 1426 ± 930 ng/mL | Plasma Indoxyl Sulfate, change from week 0 (indoxyl sulfate [1]; [4]): 107.0 ± 695.8 ng/mL | Urine Indoxyl Sulfate (early morning urine) (indoxyl sulfate [1]; [4]): 48954 ± 35769^d ng/mL | Urine Indoxyl Sulfate, change from week 0 (indoxyl sulfate [1]; [4]): -5425 ± 38514 ng/mL | Indoxyl Sulfate-Urine/Plasma ratio (indoxyl sulfate [1]; 6 W): 51.7 ± 36.4 | Indoxyl Sulfate-Urine/Plasma ratio, change from week 0 (indoxyl sulfate [1]; 6 W): −3.81 ± 37.48 | Plasma Indoxyl Sulfate (indoxyl sulfate [1]; 6 W): 1365 ± 821 ng/mL | Plasma Indoxyl Sulfate, change from week 0 (indoxyl sulfate [1]; 6 W): 27.5 ± 523.0 ng/mL | Urine Indoxyl Sulfate (early morning urine) (indoxyl sulfate [1]; 6 W): 52510 ± 39229 ng/mL | Urine Indoxyl Sulfate, change from week 0 (indoxyl sulfate [1]; 6 W): -1869 ± 19390 ng/mL | Indoxyl Sulfate-Urine/Plasma ratio (indoxyl sulfate [1]; 12 W): 35.3 ± 26.4 | Indoxyl Sulfate-Urine/Plasma ratio, change from week 0 (indoxyl sulfate [1]; 12 W): −22.41 ± 35.49 | Plasma Indoxyl Sulfate (indoxyl sulfate [1]; 12 W): 1432 ± 1031 ng/mL | Plasma Indoxyl Sulfate, change from week 0 (indoxyl sulfate [1]; 12 W): 153.1 ± 887.4 ng/mL | Urine Indoxyl Sulfate (early morning urine) (indoxyl sulfate [1]; 12 W): 37860 ± 26401 ng/mL | Urine Indoxyl Sulfate, change from week 0 (indoxyl sulfate [1]; 12 W): -16519 ± 40380 ng/mL | Indoxyl Sulfate-Urine/Plasma ratio (indoxyl sulfate [1]; 24 W): 50.7 ± 36.5^c | Indoxyl Sulfate-Urine/Plasma ratio, change from week 0 (indoxyl sulfate [1]; 24 W): −4.78 ± 35.33 | Plasma Indoxyl Sulfate (indoxyl sulfate [1]; 24 W): 1481 ± 988 ng/mL | Plasma Indoxyl Sulfate, change from week 0 (indoxyl sulfate [1]; 24 W): 143.4 ± 682.5 ng/mL | Urine Indoxyl Sulfate (early morning urine) (indoxyl sulfate [1]; 24 W): 56492 ± 39593 ng/mL | Urine Indoxyl Sulfate, change from week 0 (indoxyl sulfate [1]; 24 W): 2113 ± 49356 ng/mL | Influence on concentration of IS (indoxyl sulfate [1]; Plasma, comparison with Cont): — | Influence on concentration of IS (indoxyl sulfate [1]; Plasma, comparison with reference drug): X | Influence on IS U/P ratio (indoxyl sulfate [1]; comparison with Cont): ◯ | Influence on IS U/P ratio (indoxyl sulfate [1]; comparison with reference drug): X | Influence on concentration of IS (indoxyl sulfate [1]; Urine, comparison with Cont): (◯) | Influence on concentration of IS (indoxyl sulfate [1]; Urine, comparison with reference drug): X | concentration of indoxyl sulfate in blood (indoxyl sulfate [1]; [5]): such an effect was not recognized | concentration of indoxyl sulfate in urine (indoxyl sulfate [1]; [5]): such an effect was not recognized | Plasma Cystatine C (cystatin C; [3]): 1.165 ± 0.296 mg/L | Plasma Cystatine C (cystatin C; [4]): 1.154 ± 0.278 mg/L | Plasma Cystatine C (cystatin C; 6 W): 1.171 ± 0.281 mg/L | Plasma Cystatine C (cystatin C; 12 W): 1.151 ± 0.295 mg/L | Plasma Cystatine C (cystatin C; 24 W): 1.141 ± 0.275 mg/L | influence on the function of glomeruli (cystatin C; from cystatin C, Table 8): no influence | Urine PCS, specific gravity corrected (p-cresyl sulfate; 0 W): 113.0 ± 119.5 μg · mL^−1/1.022 · UG | Urine PCS, specific gravity corrected (p-cresyl sulfate; 6-24 W, all data): 83.2 ± 93.2 μg · mL^−1/1.022 · UG | Urine PCS, specific gravity corrected, % Relative value vs week 0 (p-cresyl sulfate; 6-24 W, all data): 151 ± 323^b,e % | Urine PCS, specific gravity corrected, difference vs week 0 (p-cresyl sulfate; 6-24 W, all data): −29.8 ± 66.1^b,d μg · mL^−1/1.022 · UG | Urine PCS, specific gravity corrected (p-cresyl sulfate; 6 W): 98.1 ± 118.3 μg · mL^−1/1.022 · UG | Urine PCS, specific gravity corrected, % Relative value vs week 0 (p-cresyl sulfate; 6 W): 83 ± 34^d,g % | Urine PCS, specific gravity corrected (p-cresyl sulfate; 12 W): 66.7 ± 73.0 μg · mL^−1/1.022 · UG | Urine PCS, specific gravity corrected, % Relative value vs week 0 (p-cresyl sulfate; 12 W): 105 ± 112% | Urine PCS, specific gravity corrected, difference vs week 0 (p-cresyl sulfate; 12 W): −46.3 ± 68.4^d,g μg · mL^−1/1.022 · UG | Urine PCS, specific gravity corrected (p-cresyl sulfate; 24 W): 84.8 ± 86.0 μg · mL^−1/1.022 · UG | Urine PCS, specific gravity corrected, % Relative value vs week 0 (p-cresyl sulfate; 24 W): 265 ± 540% | Urine PCS, specific gravity corrected, difference vs week 0 (p-cresyl sulfate; 24 W): −28.3 ± 84.4^ μg · mL^−1/1.022 · UG | Urine HA, specific gravity corrected (hippuric acid; 0 W): 202.3 ± 185.6 μg · mL^−1/1.022 · UG | Urine HA, specific gravity corrected (hippuric acid; 6-24 W, all data): 170.2 ± 101.6 μg · mL^−1/1.022 · UG | Urine HA, specific gravity corrected, % Relative value vs week 0 (hippuric acid; 6-24 W, all data): 118 ± 106% | Urine HA, specific gravity corrected, difference vs week 0 (hippuric acid; 6-24 W, all data): −32.1 ± 160.3 μg · mL^−1/1.022 · UG | Urine HA, specific gravity corrected (hippuric acid; 6 W): 161.8 ± 111.1 μg · mL^−1/1.022 · UG | Urine HA, specific gravity corrected, % Relative value vs week 0 (hippuric acid; 6 W): 104 ± 89% | Urine HA, specific gravity corrected, difference vs week 0 (hippuric acid; 6 W): −40.5 ± 171.7 μg · mL^−1/1.022 · UG | Urine HA, specific gravity corrected (hippuric acid; 12 W): 171.1 ± 87.0 μg · mL^−1/1.022 · UG | Urine HA, specific gravity corrected, % Relative value vs week 0 (hippuric acid; 12 W): 133 ± 134% | Urine HA, specific gravity corrected, difference vs week 0 (hippuric acid; 12 W): −31.2 ± 163.7 μg · mL^−1/1.022 · UG | Urine HA, specific gravity corrected (hippuric acid; 24 W): 177.7 ± 111.0 μg · mL^−1/1.022 · UG | Urine HA, specific gravity corrected, % Relative value vs week 0 (hippuric acid; 24 W): 118 ± 96% | Urine HA, specific gravity corrected, difference vs week 0 (hippuric acid; 24 W): −24.6 ± 155.3 μg · mL^−1/1.022 · UG | Urine IS, specific gravity corrected (indoxyl sulfate [2]; 6-24 W, all data): 76.7 ± 38.0 μg · mL^−1/1.022 · UG | Urine IS, specific gravity corrected, % Relative value vs week 0 (indoxyl sulfate [2]; 6-24 W, all data): 89 ± 45% | Urine IS, specific gravity corrected, difference vs week 0 (indoxyl sulfate [2]; 6-24 W, all data): −15.9 ± 34.4 μg · mL^−1/1.022 · UG | Urine IS, specific gravity corrected (indoxyl sulfate [2]; 6 W): 83.3 ± 41.9 μg · mL^−1/1.022 · UG | Urine IS, specific gravity corrected, % Relative value vs week 0 (indoxyl sulfate [2]; 6 W): 95 ± 30% | Urine IS, specific gravity corrected, difference vs week 0 (indoxyl sulfate [2]; 6 W): −9.3 ± 27.7 μg · mL^−1/1.022 · UG | Urine IS, specific gravity corrected, % Relative value vs week 0 (indoxyl sulfate [2]; 12 W): 77 ± 42% | Urine IS, specific gravity corrected, difference vs week 0 (indoxyl sulfate [2]; 12 W): −27.0 ± 32.9^ μg · mL^−1/1.022 · UG | Urine IS, specific gravity corrected (indoxyl sulfate [2]; 24 W): 81.1 ± 41.6 μg · mL^−1/1.022 · UG | Urine IS, specific gravity corrected, % Relative value vs week 0 (indoxyl sulfate [2]; 24 W): 95 ± 59% | Urine IS, specific gravity corrected, difference vs week 0 (indoxyl sulfate [2]; 24 W): −11.4 ± 40.8 μg · mL^−1/1.022 · UG

Reference: patent US20210121426A1, “BLOOD PURIFICATION BY ALKALINIZING AGENT” (TOHOKU UNIVERSITY, priority 2017, published 2021)
